Peptide text beside a SMILES is read from it.
Experiments:
KDM7B JmjC = biological target: T1, KDM7B JmjC (Homo sapiens, UniProt Q9UPP1); assay: BLI binding; design: key to BLI Screening, KDM7B JmjC: (+) = binding; (-) = no binding; (NS) = non-specific
T1 construct: made in house
Source text: (§1) Figure S2. BLI for KDM7 proteins with cyclic peptides.
(§2) BLI traces for b inding to KDM7 protein domains immobilised by C-terminal His -tag on Ni -NTA
(§3) biosensors, against cyclic peptides. Response trace for each peptide concentration is represented by
(§4) a different colour, with the fitted curves overlaid in black.
(§5) concentration plotted, with 2-fold dilutions thereafter. Dual domain = PHD+JmjC. […]
(§6) against KDM7 and other protein domains. t1/2 = half life (0.693 / Koff)
(§7) (1 picture or pasted object on this page, not shown here)

KDM7A dual domain = KDM7A dual domain (Homo sapiens, UniProt Q6ZMT4); assay: MALDI-TOF-MS KDM7 activity assay (H3 peptide demethylation); format: biochemical; conditions: from <5% without OC9
Method: Fig. 5 KDM7 PHD-finger inhibition by OC9 modulates dual domain JmjC activity. (a) (i–iii) OC9 inhibits demethylation of H3K9me2, with or without K4me3, by KDM7B (0.4 μM) on H3 peptide (2.5 μM). […] (b) (i–iii) OC9 enhances demethylation of H3K4me3K9me2 by KDM7A (0.55 μM) on H3 peptide (2.5 μM), and (iv) enhances KDM7A (0.5 μM) demethylation of calf histone extracts (50 μg). […] Inset MALDI-TOF-MS overlays are from respective highest OC9 concentration points compared to DMSO alone. KDM7 PHD-finger only proteins had no demethylase activity (Fig. S40 ^†). Calf histone H3K9me2 was quantitated relative to H4 band intensities at each time point, normalised to DMSO at t = 0. Full Western blots available in Fig. S42. ^† Relative rates (Krel min^−1) from a one-phase decay model, average from N = 3 independent experiments. […] The enzyme heading of the panel (KDM7B / KDM7A) was put in front of them. / DMSO is the vehicle control. Its printed rates (0.30 min^-1 in a, 0.04 min^-1 in b) are included because they are printed with its name.
In contrast to KDM7B, KDM7A lacks activity against H3K4me3K9me2, but demethylates H3_1–21K9me2.[57] OC9, however, restored the activity of KDM7A against H3_1–21K4me3K9me2 from <5% to a level (∼30%) that approached demethylation on H3_1–21K9me2 with DMSO alone (∼40%) (Fig. 5b and S39 ^†). […]

Caco-2 cell = assay: Cell permeability measurement (Caco-2); format: in vitro ADME
KDM7B PHD = biological target: T2, KDM7B PHD (Homo sapiens, UniProt Q9UPP1); assay: BLI binding; design: key to BLI Screening, KDM7B PHD: (+) = binding; (-) = no binding; (NS) = non-specific
T2 construct: KDM7B 1-66; made in house
T2 sequence (Q9UPP1 1-66 isoform Q9UPP1-2): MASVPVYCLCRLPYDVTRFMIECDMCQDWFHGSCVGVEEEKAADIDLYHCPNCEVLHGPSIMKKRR
Source text: as §1, §2, §3, §4, §5, §6, §7

full-length KDM7B = assay: Pull-down from transfected HEK293T nuclear lysates; format: binding; conditions: 100-fold excess competitor
Method: HEK293T cells were transiently transfected with either a full-length wild-type KDM7B, or an aromatic cage inactivating mutant KDM7B (Y14A, W29A).[20]
Capture was performed with 1 μM probe incubated in pre-cleared lysate, recovered with streptavidin-conjugated magnetic beads, then washed and eluted by heating in denaturing solution. 100-fold excess OC9 or OC9 V10A were used as competitors. […] The upper left quadrant indicates >5-fold difference in recovered protein (based on T-test difference of mean log 2 (LFQ) values) and p-value threshold <0.05.

KDM7B Dual (PHD+JmjC) = biological target: T3, KDM7B Dual (PHD+JmjC) (Homo sapiens, UniProt Q9UPP1); assay: BLI binding; design: key to BLI Screening, KDM7B Dual: (+) = binding; (-) = no binding; (NS) = non-specific
T3 construct: Dual domain = PHD+JmjC; made in house
Source text: as §1, §2, §3, §4, §5, §6, §7

TAF3 PHD = biological target: T4, TAF3 PHD (Homo sapiens, UniProt Q5VWG9); assay: AlphaScreen displacement of H3 1-21K4me3-Bt; format: binding; conditions: once at least in duplicate (Fig. 3c)
T4 construct: TAF3 PHD
Source text: (§8) (14 pictures or pasted objects on this page, not shown here)

KDM5A PHD3 = biological target: T5, KDM5A PHD3 (Homo sapiens, UniProt P29375); assay: AlphaScreen displacement of H3 1-21K4me3-Bt; format: binding; conditions: once at least in duplicate (Fig. 3c)
T5 construct: KDM5A PHD3
Source text: as §8

SPIN1 TTD = SPIN1 TTD (Homo sapiens, UniProt Q9Y657); assay: AlphaScreen displacement of H3 1-21K4me3-Bt; format: binding; conditions: once at least in duplicate (Fig. 3c)
Source text: as §8

DIDO PHD = biological target: T6, DIDO PHD (Homo sapiens, UniProt Q9BTC0); assay: AlphaScreen displacement of H3 1-21K4me3-Bt; format: binding; conditions: average of two independent experiments
T6 construct: DIDO PHD
T6 sequence (Q9BTC0 268-322 limits assumed): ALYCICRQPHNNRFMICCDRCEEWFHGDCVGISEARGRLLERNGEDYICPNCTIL
Source text: as §8

ING2 PHD = biological target: T7, ING2 PHD (Homo sapiens, UniProt Q9H160); assay: AlphaScreen displacement of H3 1-21K4me3-Bt; format: binding; conditions: once at least in duplicate (Fig. 3c)
T7 construct: ING2 PHD
Source text: as §8

KDM7B PHD-finger = biological target: T8, KDM7B PHD-finger (Homo sapiens, UniProt Q9UPP1); assay: HDX-MS; format: binding; conditions: 60 minute time-course, relative to DMSO
T8 construct: KDM7B 1-66; His-tag (C); made in house
T8 sequence (Q9UPP1 1-66 isoform Q9UPP1-2): T2 sequence (Q9UPP1 1-66 isoform Q9UPP1-2)
Source text: (§9) To further evaluate the interactions of OC9 with KDM7B we used hydrogen–deuterium exchange mass spectrometry (HDX-MS), which informs on protein dynamics by following deuterium incorporation into the protein amide backbone (Fig. 2).
(§10) The residue level view was generated by averaging mass changes across overlapping peptide fragments. Supporting data available in ESI. ^† K4me3 binding aromatic cage residues (‘YYMW’ Fig. 1a) are indicated by red asterix.

KDM7B dual domain = biological target: T9, KDM7B dual domain (Homo sapiens, UniProt Q9UPP1); assay: HDX-MS; format: binding; conditions: relative to DMSO
T9 construct: dual domain (PHD-JmjC) of KDM7B; His-tag (C); made in house
Source text: as §9, §10

[1] = His-tagged protein on Ni-NTA biosensors, 1:1 binding model
[2] = qualitative assessment of binding by BLI

T3 sequence (Q9UPP1 37-483 limits assumed): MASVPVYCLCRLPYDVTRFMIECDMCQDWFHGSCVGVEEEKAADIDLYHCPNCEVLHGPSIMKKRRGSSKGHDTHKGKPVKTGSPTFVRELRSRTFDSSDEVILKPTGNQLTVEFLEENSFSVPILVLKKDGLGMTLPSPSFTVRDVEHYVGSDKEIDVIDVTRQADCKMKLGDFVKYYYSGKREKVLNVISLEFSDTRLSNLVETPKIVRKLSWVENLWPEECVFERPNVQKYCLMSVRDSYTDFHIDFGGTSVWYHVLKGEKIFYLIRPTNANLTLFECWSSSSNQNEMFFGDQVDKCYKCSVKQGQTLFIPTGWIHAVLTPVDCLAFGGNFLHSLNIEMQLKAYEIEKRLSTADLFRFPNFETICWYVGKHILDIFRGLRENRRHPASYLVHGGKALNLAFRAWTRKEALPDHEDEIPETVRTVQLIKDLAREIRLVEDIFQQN
T1 sequence (Q9UPP1 231-387 limits assumed): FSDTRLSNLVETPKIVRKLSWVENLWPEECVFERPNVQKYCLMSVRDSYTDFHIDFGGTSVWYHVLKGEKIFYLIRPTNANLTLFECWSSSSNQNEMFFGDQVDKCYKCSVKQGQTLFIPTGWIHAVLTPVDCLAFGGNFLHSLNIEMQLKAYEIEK
T4 sequence (Q5VWG9 865-915 limits assumed): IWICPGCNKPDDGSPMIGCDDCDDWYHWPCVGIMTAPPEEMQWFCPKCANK
T9 sequence (Q9UPP1 37-483 limits assumed): as the sequence (Q9UPP1 37-483 limits assumed) above
Chain of SPIN1 TTD (Q9Y657 53-262 limits assumed): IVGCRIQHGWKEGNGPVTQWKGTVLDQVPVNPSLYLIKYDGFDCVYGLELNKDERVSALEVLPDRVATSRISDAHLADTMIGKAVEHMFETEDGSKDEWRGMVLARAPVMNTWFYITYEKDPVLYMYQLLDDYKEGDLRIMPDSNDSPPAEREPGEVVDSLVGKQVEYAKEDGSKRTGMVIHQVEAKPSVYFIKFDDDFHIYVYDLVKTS
T5 sequence (P29375 1607-1661 limits assumed): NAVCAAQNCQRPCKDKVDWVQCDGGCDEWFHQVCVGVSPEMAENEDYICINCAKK
T7 sequence (Q9H160 212-261 limits assumed): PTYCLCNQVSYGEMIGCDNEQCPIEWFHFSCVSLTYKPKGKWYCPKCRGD
Chain of KDM7A dual domain (Q6ZMT4 38-480 limits assumed): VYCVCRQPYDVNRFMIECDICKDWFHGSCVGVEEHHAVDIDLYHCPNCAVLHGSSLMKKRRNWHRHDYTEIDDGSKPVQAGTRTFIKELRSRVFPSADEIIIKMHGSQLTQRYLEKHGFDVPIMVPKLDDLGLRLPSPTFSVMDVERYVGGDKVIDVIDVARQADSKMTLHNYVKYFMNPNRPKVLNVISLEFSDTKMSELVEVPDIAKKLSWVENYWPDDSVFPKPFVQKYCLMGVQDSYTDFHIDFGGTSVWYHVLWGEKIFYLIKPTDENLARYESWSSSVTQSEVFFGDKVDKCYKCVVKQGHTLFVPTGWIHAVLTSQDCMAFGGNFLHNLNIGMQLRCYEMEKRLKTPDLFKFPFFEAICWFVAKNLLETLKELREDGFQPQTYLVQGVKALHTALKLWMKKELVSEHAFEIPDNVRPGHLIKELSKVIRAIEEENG

Kd (KDM7B JmjC; 1:1 binding model, read-out: BLI pKD, KDM7B JmjC (converted)): > 1 µM
BLI KD, KDM7B JmjC (KDM7B JmjC; [1]): no affinity
BLI Screening, KDM7B JmjC (KDM7B JmjC; [2]): -
activity of KDM7A against H3_1–21K4me3K9me2 restored by OC9 (demethylation level) (KDM7A dual domain): ~30%
permeability in Caco-2 cell assay (Caco-2 cell): negligible permeability
koff (KDM7B PHD; 1:1 binding model): 0.00143 ± 1e-05 s⁻¹
kon (KDM7B PHD; 1:1 binding model): 360000 ± 2000 M⁻¹ s⁻¹
Kd (KDM7B PHD; His-tagged protein on Ni-NTA biosensors, 1:1 binding model, read-out: BLI KD, KDM7B PHD): 0.00396 µM
BLI Screening, KDM7B PHD (KDM7B PHD; [2]): +
koff (KDM7B Dual (PHD+JmjC); 1:1 binding model): 0.00413 ± 3e-05 s⁻¹
kon (KDM7B Dual (PHD+JmjC); 1:1 binding model): 691000 ± 7000 M⁻¹ s⁻¹
Kd (KDM7B Dual (PHD+JmjC); [1]): 0.00598 µM
BLI Screening, KDM7B Dual (KDM7B Dual (PHD+JmjC); [2]): +
IC50 (TAF3 PHD): > 5 µM
IC50 (KDM5A PHD3): > 5 µM
IC50 (SPIN1 TTD): > 2 µM
AlphaScreen displacement IC50, DIDO PHD (DIDO PHD): no measurable affinity
IC50 (DIDO PHD): > 10 µM
IC50 (ING2 PHD): > 5 µM
HDX-MS effect on deuterium uptake, KDM7B PHD-finger (KDM7B PHD-finger): affected an even greater proportion
SMILES: CC(C)C[C@@H]1NC(=O)[C@H](Cc2ccc(O)cc2)NC(=O)[C@H](Cc2ccc(O)cc2)NC(=O)CSC[C@@H](C(N)=O)NC(=O)[C@H]([C@@H](C)O)NC(=O)[C@H](CCCNC(=N)N)NC(=O)[C@H](Cc2ccccc2)NC(=O)[C@H](C(C)C)NC(=O)[C@H](CO)NC(=O)[C@@H]2CCCN2C(=O)[C@H](Cc2ccc(O)cc2)NC(=O)[C@@H]2CCCN2C(=O)[C@H](Cc2c[nH]cn2)NC(=O)[C@H]([C@@H](C)O)NC1=O [OC9] (HELM PEPTIDE1{[O=C(C[*:3])[*:2]].Y.Y.L.T.H.P.Y.P.S.V.F.R.T.C.[am]}$PEPTIDE1,PEPTIDE1,1:R3-15:R3$$$V2.0)
competition of OC9-Bt pull-down of KDM7B (full-length KDM7B): substantially reduced KDM7B recovery
HDX-MS effect on deuterium uptake, KDM7B dual domain (KDM7B dual domain): only reduced deuterium uptake in peptide fragments within the PHD-finger

Reference: PMC10321576, “Cyclic peptides target the aromatic cage of a PHD-finger reader domain to modulate epigenetic protein function” (Chemical Science, 2023)
